In patent US20150011423A1, “MEANS AND METHODS FOR ASSESSING KIDNEY TOXICITY” (BASF SE, priority 2011, published 2015):
Marks after values point to notes of the source that are not given here. Each block holds one molecule with its values, some of them ahead of it.

Tested on: rats
Assay: 28-day repeated dose study in rats with mass spectrometry-based plasma metabolite profiling (GC-MS, LC-MS, SPE-LC-MS); treatment ratios versus control
Settings: plasma
[1] = male rats, day 7, high dose, Table 2c glomerular-tubular defect
[2] = male rats, day 7, high dose, Table 2d glomerular-tubular defect
[3] = male rats, day 14, high dose, Table 2c glomerular-tubular defect
[4] = male rats, day 14, high dose, Table 2d glomerular-tubular defect
[5] = male rats, day 28, high dose, Table 2c glomerular-tubular defect
[6] = male rats, day 28, high dose, Table 2d glomerular-tubular defect
[7] = male rats, day 7, high dose, Table 7a interstitial nephritis
[8] = male rats, day 7, high dose, Table 7b interstitial nephritis
[9] = male rats, day 14, high dose, Table 7a interstitial nephritis
[10] = male rats, day 14, high dose, Table 7b interstitial nephritis
[11] = male rats, day 28, high dose, Table 7a interstitial nephritis
[12] = male rats, day 28, high dose, Table 7b interstitial nephritis
[13] = female rats, day 7, high dose, Table 4a inhibition of weak acid excretion
[14] = female rats, day 7, high dose, Table 4b inhibition of weak acid excretion
[15] = female rats, day 14, high dose, Table 4a inhibition of weak acid excretion
[16] = female rats, day 14, high dose, Table 4b inhibition of weak acid excretion
[17] = female rats, day 28, high dose, Table 4a inhibition of weak acid excretion
[18] = female rats, day 28, high dose, Table 4b inhibition of weak acid excretion
[19] = male rats, day 7, high dose, Table 4c inhibition of weak acid excretion
[20] = male rats, day 7, high dose, Table 4d inhibition of weak acid excretion
[21] = male rats, day 14, high dose, Table 4c inhibition of weak acid excretion
[22] = male rats, day 14, high dose, Table 4d inhibition of weak acid excretion
[23] = male rats, day 28, high dose, Table 4c inhibition of weak acid excretion
[24] = male rats, day 28, high dose, Table 4d inhibition of weak acid excretion

Molecule: Tricresyl phosphate
Creatine, treatment ratio versus control [1]: 1.16 *
Creatinine, treatment ratio versus control [1]: 0.77^
Glycerol-3-phosphate, polar fraction, treatment ratio versus control [1]: 0.83 *
Lysophosphatidylcholine (C18:2), treatment ratio versus control [1]: 1.19^
Threonic acid, treatment ratio versus control [1]: 1.32 *
4-Hydroxy-3-methoxyphenylglycol (HMPG), treatment ratio versus control [2]: 0.95^
Cysteine, treatment ratio versus control [2]: 0.44 *
Isopalmitic acid (C16:0), treatment ratio versus control [2]: 0.84 *
Metanephrine, treatment ratio versus control [2]: 0.43 *
Normetanephrine, treatment ratio versus control [2]: 0.74 *
Creatine, treatment ratio versus control [3]: 1.42 *
Creatinine, treatment ratio versus control [3]: 0.74^
Glycerol-3-phosphate, polar fraction, treatment ratio versus control [3]: 0.89^
Lysophosphatidylcholine (C18:2), treatment ratio versus control [3]: 1.27 *
Threonic acid, treatment ratio versus control [3]: 1.5 *
4-Hydroxy-3-methoxyphenylglycol (HMPG), treatment ratio versus control [4]: 0.93 *
Cysteine, treatment ratio versus control [4]: 0.51 *
Isopalmitic acid (C16:0), treatment ratio versus control [4]: 0.76 *
Metanephrine, treatment ratio versus control [4]: 0.74 *
Normetanephrine, treatment ratio versus control [4]: 0.71 *
Creatine, treatment ratio versus control [5]: 1.11 *
Creatinine, treatment ratio versus control [5]: 0.78 *
Glycerol-3-phosphate, polar fraction, treatment ratio versus control [5]: 0.89^
Lysophosphatidylcholine (C18:2), treatment ratio versus control [5]: 1.15 *
Threonic acid, treatment ratio versus control [5]: 1.53 *
4-Hydroxy-3-methoxyphenylglycol (HMPG), treatment ratio versus control [6]: 0.83 *
Cysteine, treatment ratio versus control [6]: 0.55 *
Isopalmitic acid (C16:0), treatment ratio versus control [6]: 0.62 *
Metanephrine, treatment ratio versus control [6]: 0.76^
Normetanephrine, treatment ratio versus control [6]: 1.03^

Creatine, treatment ratio versus control [7]: 1.4 *
Creatinine, treatment ratio versus control [7]: 1.41 *
Eicosanoic acid (C20:0), treatment ratio versus control [7]: 1.41 *
Glucuronic acid, treatment ratio versus control [7]: 1.08^
Lignoceric acid (C24:0), treatment ratio versus control [7]: 1.31 *
Phosphatidylcholine (C18:2, C20:4), treatment ratio versus control [7]: 1.05 *
Serine, treatment ratio versus control [7]: 1.12 *
Sphingomyelin (d18:1, C16:0), treatment ratio versus control [7]: 1.69 *
Threonine, treatment ratio versus control [7]: 1.31 *
myo-Inositol-2-phosphate, treatment ratio versus control [7]: 1.39 *
Glycerol, polar fraction, treatment ratio versus control [8]: 0.98^
Isopalmitic acid (C16:0), treatment ratio versus control [8]: 0.55 *
Kynurenic acid, treatment ratio versus control [8]: 0.71 *
Creatine, treatment ratio versus control [9]: 1.35 *
Creatinine, treatment ratio versus control [9]: 1.58 *
Eicosanoic acid (C20:0), treatment ratio versus control [9]: 1.3 *
Glucuronic acid, treatment ratio versus control [9]: 1.17 *
Lignoceric acid (C24:0), treatment ratio versus control [9]: 1.55 *
Phosphatidylcholine (C18:2, C20:4), treatment ratio versus control [9]: 1.06 *
Serine, treatment ratio versus control [9]: 1.5 *
Sphingomyelin (d18:1, C16:0), treatment ratio versus control [9]: 1.5 *
Threonine, treatment ratio versus control [9]: 1.72 *
myo-Inositol-2-phosphate, treatment ratio versus control [9]: 0.88^
Glycerol, polar fraction, treatment ratio versus control [10]: 0.87^
Isopalmitic acid (C16:0), treatment ratio versus control [10]: 0.57 *
Kynurenic acid, treatment ratio versus control [10]: 0.83 *
Creatine, treatment ratio versus control [11]: 1.34 *
Creatinine, treatment ratio versus control [11]: 1.33 *
Eicosanoic acid (C20:0), treatment ratio versus control [11]: 1.76 *
Glucuronic acid, treatment ratio versus control [11]: 1.26 *
Lignoceric acid (C24:0), treatment ratio versus control [11]: 1.23 *
Phosphatidylcholine (C18:2, C20:4), treatment ratio versus control [11]: 1.05^
Serine, treatment ratio versus control [11]: 1.54 *
Sphingomyelin (d18:1, C16:0), treatment ratio versus control [11]: 1.48 *
Threonine, treatment ratio versus control [11]: 2.44 *
myo-Inositol-2-phosphate, treatment ratio versus control [11]: 1.3 *
Glycerol, polar fraction, treatment ratio versus control [12]: 0.75 *
Isopalmitic acid (C16:0), treatment ratio versus control [12]: 0.59 *
Kynurenic acid, treatment ratio versus control [12]: 0.8 *
Molecule: CCc1ccccc1 [Ethyl benzene, Ethylbenzene]

Molecule: Cc1cc(Cl)ccc1OCC(=O)O [MCPA]
Glycerol, lipid fraction, treatment ratio versus control [13]: 1.69 *
Linoleic acid (C18:cis[9,12]2), treatment ratio versus control [13]: 1.66 *
Lysophosphatidylcholine (C18:2), treatment ratio versus control [13]: 1.38^
Phosphatidylcholine (C16:0, C16:0), treatment ratio versus control [13]: 1.52 *
Phosphatidylcholine (C16:0, C18:2), treatment ratio versus control [13]: 1.66 *
Phosphatidylcholine (C16:0, C20:5), treatment ratio versus control [13]: 2.03 *
Phosphatidylcholine (C16:1, C18:2), treatment ratio versus control [13]: 2.92 *
Phosphatidylcholine (C18:0, C18:1), treatment ratio versus control [13]: 1.57 *
Phosphatidylcholine (C18:1, C18:2), treatment ratio versus control [13]: 1.68^
gamma-Linolenic acid (C18:cis[6,9,12]3), treatment ratio versus control [13]: 4.23 *
Arginine, treatment ratio versus control [14]: 0.62 *
Indole-3-lactic acid, treatment ratio versus control [14]: 0.24 *
Ketoleucine, treatment ratio versus control [14]: 0.42 *
Proline, treatment ratio versus control [14]: 0.61 *
Tryptophan, treatment ratio versus control [14]: 0.17 *
trans-4-Hydroxyproline, treatment ratio versus control [14]: 0.57^
Glycerol, lipid fraction, treatment ratio versus control [15]: 1.38 *
Linoleic acid (C18:cis[9,12]2), treatment ratio versus control [15]: 1.36 *
Lysophosphatidylcholine (C18:2), treatment ratio versus control [15]: 1.45 *
Phosphatidylcholine (C16:0, C16:0), treatment ratio versus control [15]: 1.8 *
Phosphatidylcholine (C16:0, C18:2), treatment ratio versus control [15]: 1.82 *
Phosphatidylcholine (C16:0, C20:5), treatment ratio versus control [15]: 2.09 *
Phosphatidylcholine (C16:1, C18:2), treatment ratio versus control [15]: 2.88 *
Phosphatidylcholine (C18:0, C18:1), treatment ratio versus control [15]: 1.74 *
Phosphatidylcholine (C18:1, C18:2), treatment ratio versus control [15]: 2.12 *
gamma-Linolenic acid (C18:cis[6,9,12]3), treatment ratio versus control [15]: 2.93 *
Arginine, treatment ratio versus control [16]: 0.58 *
Indole-3-lactic acid, treatment ratio versus control [16]: 0.24 *
Ketoleucine, treatment ratio versus control [16]: 0.21 *
Proline, treatment ratio versus control [16]: 0.45 *
Tryptophan, treatment ratio versus control [16]: 0.18 *
trans-4-Hydroxyproline, treatment ratio versus control [16]: 0.47 *
Glycerol, lipid fraction, treatment ratio versus control [17]: 1.6 *
Linoleic acid (C18:cis[9,12]2), treatment ratio versus control [17]: 1.28 *
Lysophosphatidylcholine (C18:2), treatment ratio versus control [17]: 1.35 *
Phosphatidylcholine (C16:0, C16:0), treatment ratio versus control [17]: 1.78 *
Phosphatidylcholine (C16:0, C18:2), treatment ratio versus control [17]: 1.45 *
Phosphatidylcholine (C16:0, C20:5), treatment ratio versus control [17]: 1.61 *
Phosphatidylcholine (C16:1, C18:2), treatment ratio versus control [17]: 2.45 *
Phosphatidylcholine (C18:0, C18:1), treatment ratio versus control [17]: 1.56 *
Phosphatidylcholine (C18:1, C18:2), treatment ratio versus control [17]: 1.78 *
gamma-Linolenic acid (C18:cis[6,9,12]3), treatment ratio versus control [17]: 2.99 *
Arginine, treatment ratio versus control [18]: 0.58 *
Indole-3-lactic acid, treatment ratio versus control [18]: 0.23 *
Ketoleucine, treatment ratio versus control [18]: 0.15 *
Proline, treatment ratio versus control [18]: 0.42 *
Tryptophan, treatment ratio versus control [18]: 0.16 *
trans-4-Hydroxyproline, treatment ratio versus control [18]: 0.6 *
3-Indoxylsulfate, treatment ratio versus control [19]: 0.72^
Aspartate, treatment ratio versus control [19]: 0.58 *
Ceramide (d18:1, C24:0), treatment ratio versus control [19]: 1.2
Cholesterolester No 01, treatment ratio versus control [19]: 0.97^
Lysophosphatidylethanolamine (C22:5), treatment ratio versus control [19]: 1.16^
Phosphatidylcholine (C16:0, C20:5), treatment ratio versus control [19]: 1.73 *
gamma-Linolenic acid (C18:cis[6,9,12]3), treatment ratio versus control [19]: 1.69 *
Arachidonic acid (C20:cis[5,8,11,14]4), treatment ratio versus control [20]: 0.27 *
Arginine, treatment ratio versus control [20]: 0.72 *
Aspartate, treatment ratio versus control [20]: 0.58 *
Choline plasmalogen (C18, C20:4), treatment ratio versus control [20]: 0.64 *
Cytosine, treatment ratio versus control [20]: 0.63 *
Glucose, treatment ratio versus control [20]: 0.75 *
Indole-3-lactic acid, treatment ratio versus control [20]: 0.36 *
Lysine, treatment ratio versus control [20]: 0.4 *
Lysophosphatidylcholine (C18:0), treatment ratio versus control [20]: 0.81 *
Methionine, treatment ratio versus control [20]: 0.66 *
Nervonic acid (C24:cis[15]1), treatment ratio versus control [20]: 0.67 *
Phosphatidylcholine (C18:0, C20:4), treatment ratio versus control [20]: 0.36 *
Ribal, treatment ratio versus control [20]: 0.94 *
3-Indoxylsulfate, treatment ratio versus control [21]: 1.53 *
Aspartate, treatment ratio versus control [21]: 1.01^
Ceramide (d18:1, C24:0), treatment ratio versus control [21]: 2.39 *
Cholesterolester No 01, treatment ratio versus control [21]: 1.27 *
Lysophosphatidylethanolamine (C22:5), treatment ratio versus control [21]: 1.08^
Phosphatidylcholine (C16:0, C20:5), treatment ratio versus control [21]: 1.82 *
gamma-Linolenic acid (C18:cis[6,9,12]3), treatment ratio versus control [21]: 2.68 *
Arachidonic acid (C20:cis[5,8,11,14]4), treatment ratio versus control [22]: 0.42 *
Arginine, treatment ratio versus control [22]: 0.57 *
Aspartate, treatment ratio versus control [22]: 1.01^
Choline plasmalogen (C18, C20:4), treatment ratio versus control [22]: 0.76 *
Cytosine, treatment ratio versus control [22]: 0.63 *
Glucose, treatment ratio versus control [22]: 0.72 *
Indole-3-lactic acid, treatment ratio versus control [22]: 0.38
Lysine, treatment ratio versus control [22]: 0.3 *
Lysophosphatidylcholine (C18:0), treatment ratio versus control [22]: 0.83 *
Methionine, treatment ratio versus control [22]: 0.59 *
Nervonic acid (C24:cis[15]1), treatment ratio versus control [22]: 0.74 *
Phosphatidylcholine (C18:0, C20:4), treatment ratio versus control [22]: 0.55 *
Ribal, treatment ratio versus control [22]: 0.89 *
3-Indoxylsulfate, treatment ratio versus control [23]: 1.92 *
Aspartate, treatment ratio versus control [23]: 0.69^
Ceramide (d18:1, C24:0), treatment ratio versus control [23]: 1.72 *
Cholesterolester No 01, treatment ratio versus control [23]: 1.32 *
Lysophosphatidylethanolamine (C22:5), treatment ratio versus control [23]: 1.1
Phosphatidylcholine (C16:0, C20:5), treatment ratio versus control [23]: 2.11 *
gamma-Linolenic acid (C18:cis[6,9,12]3), treatment ratio versus control [23]: 2.54 *
Arachidonic acid (C20:cis[5,8,11,14]4), treatment ratio versus control [24]: 0.26 *
Arginine, treatment ratio versus control [24]: 0.68 *
Aspartate, treatment ratio versus control [24]: 0.69 *
Choline plasmalogen (C18, C20:4), treatment ratio versus control [24]: 0.45 *
Cytosine, treatment ratio versus control [24]: 0.6 *
Glucose, treatment ratio versus control [24]: 0.6 *
Indole-3-lactic acid, treatment ratio versus control [24]: 0.3 *
Lysine, treatment ratio versus control [24]: 0.33 *
Lysophosphatidylcholine (C18:0), treatment ratio versus control [24]: 0.73 *
Methionine, treatment ratio versus control [24]: 0.64 *
Nervonic acid (C24:cis[15]1), treatment ratio versus control [24]: 0.76 *
Phosphatidylcholine (C18:0, C20:4), treatment ratio versus control [24]: 0.24 *
Ribal, treatment ratio versus control [24]: 0.77 *
